According to patent US6951916B2, “Melanocortin receptor ligands” (The Procter & Gamble Company, priority 1999, dated 2005):

Columns and labels:
[1] = target: T1, MC-4 receptor (Homo sapiens, UniProt P32245); assay: BioTrak cAMP direct enzymeimmunoassay in HEK cells stably transfected with MC-1, MC-3 or MC-4 receptors (% cAMP relative to NDP-MSH); assay type: cell-based; conditions: % of maximal cAMP produced by NDP-MSH; concentrations 1×10^−8 to 1×10^−4 molar; HEK cells transfected with MC-1, MC-3 or MC-4
T1 construct: expressed in transfected cells; host or cells: HEK cells (stably transfected)
Protocol: The NDP-MSH standard was evaluated for the level of c-AMP release at each receptor and the values for the test samples were expressed as a % of the maximal amount produced by NDP-MSH. 1R, 3R, and 4R correspond respectively to the MC-1, MC-3, and MC-4 receptors. The % c-AMP produced by each compound was measured at concentrations from 1×10^−8 to 1×10^−4 molar.
As used herein, “MC-4 agonist” and “MC-3 agonist” refers to a compound with affinity for the MC-4 receptor or MC-3 receptor, respectively, that results in measurable biological activity in cells, tissues, or organisms which contain the MC-4 or MC-3 receptor. […] One particularly useful assay is the BioTrak TM cAMP direct enzymeimmunoassay (EIA) system from Amersham Pharmacia Biotech, which quantitates the cAMP response of cells to MC ligands. This system allows the simple quantitation of total cellular cAMP measurement in cells exposed to selective ligands. Briefly summarized: HEK cells stably transfected with the MC-1, MC-3 or MC-4 receptors are plated into 96 well microtiter plates and grown overnight. Cells are dosed with the appropriate MC ligand for 1 hour and then lysed. A fraction of the lysed cell extract is transferred to the assay plate. The ELISA assay is performed according to kit instructions. Each plate contains a series of cAMP standards for calculating a standard curve, as well as a full MC agonist as a positive control for each MC receptor. cAMP activity is calculated as a % of the maximum cAMP activity of the full MC agonist control.
A compound's selectivity is determined from a comparison of its EC50 values at the relevant receptors being referenced. As used herein, use of the term “selective over the other MC receptors” means selective with respect to all of the MC-1, MC-2 and MC-5 receptors. For example, a compound having an EC50 of 8 nM at the MC-4 receptor and an EC50 of ≧80 nM at the MC-1, MC-2 and MC-5 receptors has a selectivity ratio for the MC-4 receptor over the other MC receptors of at least 1:10. Additionally, it will be recognized that selectivity may also refer to one of the MC-1, MC-2 or MC-5 receptors individually. For example, a compound having an EC50 of 8 nM at the MC-4 receptor and an EC50 of 80 nM at the MC-1 receptor has a selectivity ratio for the MC-4 receptor over the MC-1 receptor of 1:10. Such a compound is selective over the MC-1 receptor, regardless of its EC50 value for MC-2 or MC-5. Selectivity is described in more detail below and may be determined by using, for example, the software Prism v 2.0 which is available from GraphPad, Inc.

[2] = Example A: treatment of an obese human subject to incur weight loss; assay type: in vivo; conditions: obese human 130 kg; intravenous injection once each day for 6 months, 15 ml aqueous solution with 5 mg/ml compound
Protocol: An obese human subject weighing 130 kg is treated by this method to incur weight loss. Specifically, once each day for a period of 6 months, the subject is administered, via intravenous injection, 15 ml of an aqueous solution comprising the following: […]

T1 sequence (P32245 whole entry): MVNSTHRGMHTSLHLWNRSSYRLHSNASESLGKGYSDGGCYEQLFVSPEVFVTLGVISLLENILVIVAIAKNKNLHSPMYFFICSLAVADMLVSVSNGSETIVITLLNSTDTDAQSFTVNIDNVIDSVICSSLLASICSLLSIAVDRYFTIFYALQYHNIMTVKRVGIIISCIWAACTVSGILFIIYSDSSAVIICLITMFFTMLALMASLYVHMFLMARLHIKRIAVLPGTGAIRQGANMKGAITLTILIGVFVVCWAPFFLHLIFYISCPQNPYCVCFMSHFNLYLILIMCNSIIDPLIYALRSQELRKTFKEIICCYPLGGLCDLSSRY

In the case of “Ac-SYSNIeEHfRWGKPV-NH2 [reference compound]”, the “selectivity shown by % cAMP activity at various concentrations at MC-1R, MC-3R and MC-4R” value (from here on “selectivity shown by % cAMP activity”) [1] is reported as “non-selective agonist”.

For Ac-a[EYfRWGK]-NH2 [Example 5], the “selectivity shown by % cAMP activity” value [1] was “selectivity of this analog for MC-4R over the MC-3R and MC-1R”.

In the case of Ac-[DYfRWGK]-NH2 [Example 2], the “selectivity shown by % cAMP activity” value [1] is reported as “selectivity of this analog for MC-4R over the MC-3R and MC-1R”.

For Ac-a[DYfRWGK]-NH2 [Example 1], the “weight loss at the end of the treatment period” value [2] was “measurable weight loss”.

With Ac-a[EYfRWG(Orn)]-NH2 [Example 4] the “selectivity shown by % cAMP activity” value [1] was “selectivity of this analog for MC-4R over the MC-3R and MC-1R”.

In the case of Ac-aDYfRWGK-NH2 [Example 16], the “selectivity shown by % cAMP activity” value [1] is reported as “selectivity of this analog for MC-4R over the MC-3R and MC-1R”.

For Ac-aDYfRWG(Orn)-NH2 [Example 17], the “selectivity shown by % cAMP activity” value [1] was “selectivity of this analog for MC-4R over MC-1R”.

For Ac-NIeDHfRWGK-NH2 [reference compound], the “selectivity shown by % cAMP activity” value [1] was “non-selective agonist”.

For Ac-aDYfRWK-NH2 [Example 14], the “selectivity shown by % cAMP activity” value [1] was “selectivity of this analog for MC-4R over MC-1R”.

With Ac-a[DYfRWG(Orn)]-NH2 [Example 31] the “selectivity shown by % cAMP activity” value [1] was “selectivity of this analog for MC-4R over MC-1R”.

In the case of Ac-aEYfRWG(Orn)-NH2, the “selectivity shown by % cAMP activity” value [1] is reported as “selectivity of this analog for MC-4R over MC-1R”.
